Assay results: article PMC4719150 (Biochemistry, 2015)
Where two headings read alike, the source gives them in different places. Numbered stars: 1 amine (or outer) side, 2 acyl side, 3 side chain; on linkers, the order of the positions; unused ones are H or OH. Bridge positions count the residues as written; N and C are the ends. Square brackets hold non-standard residues; d marks the D form. Peptide text beside a SMILES is read from it. I, II: the chains in the order shown. Actinocin(9to1) = Cc1c2oc3c(C)ccc(C(=O)[*:1])c3nc-2c(C(=O)[*:2])c(N)c1=O; NMeV = CN[C@H](C(=O)O)C(C)C; Sar = CNCC(=O)O

What was measured:
[1] = test system: recIAV WSN-NanoLuc; assay: microbe, parasite or virus in culture; assay type: cell-based; conditions: Influenza A virus, BEAS-2B, 40 h, read-out: % Inhibition (anti-IAV)
[2] = test system: BEAS-2B cells; conditions: uninfected BEAS-2B cells, highest concentration assessed 10 μM, tox = less than 50% cell viability after 44 hours at ≤10 μM; for CC50: read-out: CC50 (PrestoBlue cell viability)
[3] = test system: recRSV A2-L19FD489E-fireSMASh; conditions: for EC50: read-out: EC50 RSV A2-L19FD489E-fireSMASh
[4] = test system: recIAV WSN-NanoLuc; assay: microbe, parasite or virus in culture; conditions: Influenza A virus, BEAS-2B, read-out: EC50 IAV WSN-nanoLuc
[5] = test system: recIAV WSN-NanoLuc; conditions: for EC50: read-out: EC50 IAV WSN-nanoLuc
[6] = in vitro; conditions: human
[7] = test system: recRSV A2-L19F-renilla; assay: microbe, parasite or virus in culture; assay type: cell-based; conditions: human respiratory syncytial virus, BEAS-2B, read-out: EC50 RSV A2-L19F-renilla
[8] = test system: recRSV-L19FD489E-fireSMASh; assay: Peak progeny virus titers after incubation with ASV; assay type: cell-based, respiratory syncytial virus; conditions: 3 μM ASV versus vehicle
[9] = test system: fireSMASh (firefly luciferase fused to SMASh tag); assay: Firefly luciferase activity after virus growth in the presence of ASV; assay type: cell-based; conditions: growth of recRSV-L19FD489E-fireSMASh in the presence of 3 μM ASV; 44 hours post-infection

Cn1nnc2c(C(N)=O)ncn2c1=O [Temozolomide]
inhibition at 5 µM [1]: 55 ± 3.2%

CNc1ccc2oc(C[C@H]3O[C@@]4(CC[C@H]3C)O[C@H]([C@H](C)C(=O)c3ccc[nH]3)[C@H](C)C[C@H]4C)nc2c1C(=O)O [Calcimycin]
CC50 (PrestoBlue cell viability) [2]: tox^d

Nc1nc(N)c2nc(CNc3ccc(C(=O)N[C@@H](CCC(=O)O)C(=O)O)cc3)cnc2n1 [Aminopterin]
SI RSV [CC50/EC50] [3]: SIIAV 111 SIRSV 143 conf. broad spectrum [79], [80] | EC50 [4]: 0.09 µM | SI IAV [CC50/EC50] [5]: SIIAV 111 SIRSV 143 conf. broad spectrum [79], [80] | CC50 [6]: 10 µM | EC50 [7]: 0.05 µM

Cc1c(-c2ccc(-c3ccccc3F)cc2)nc2ccc(F)cc2c1C(=O)O [Brequinar]
SI RSV [CC50/EC50] [3]: SIIAV >3.8 SIRSV >6.3 conf. broad spectrum [81], [82] | EC50 [4]: 2.6 µM | SI IAV [CC50/EC50] [5]: SIIAV >3.8 SIRSV >6.3 conf. broad spectrum [81], [82] | CC50 [6]: > 10 µM | EC50 [7]: 1.8 µM

CN(Cc1cnc2nc(N)nc(N)c2n1)c1ccc(C(=O)N[C@@H](CCC(=O)O)C(=O)O)cc1 [Methotrexate]
inhibition at 5 µM [1]: 100 ± 0.6%

Nc1ccn([C@@H]2O[C@H](CO)[C@@H](O)C2(F)F)c(=O)n1 [Gemcitabine]
SI RSV [CC50/EC50] [3]: SIIAV >100 SIRSV >111 HIV, IAV [49], [50] | EC50 [4]: 0.1 µM | SI IAV [CC50/EC50] [5]: SIIAV >100 SIRSV >111 HIV, IAV [49], [50] | CC50 [6]: > 10 µM | EC50 [7]: 0.05 µM

Nc1nc2c(c(=O)[nH]1)C[C@@H](CCc1ccc(C(=O)N[C@@H](CCC(=O)O)C(=O)O)cc1)CN2 [Lometrexol]
CC50 (PrestoBlue cell viability) [2]: tox^d

CC[C@H]1CN2CCc3cc(OC)c(OC)cc3[C@@H]2C[C@@H]1C[C@H]1NCCc2cc(OC)c(OC)cc21 [Emetine]
CC50 (PrestoBlue cell viability) [2]: tox^d

CCN(CC)CCOc1ccc(Nc2ncc3cc(-c4c(Cl)cccc4Cl)c(=O)n(C)c3n2)cc1 [PD-166285]
CC50 (PrestoBlue cell viability) [2]: tox^d

Cn1c(=O)c(-c2c(Cl)cccc2Cl)cc2cnc(Nc3ccc(N4CCOCC4)cc3)nc21 [PD173952]
CC50 (PrestoBlue cell viability) [2]: tox^d

Oc1ccc(/C=C/c2ccc(/C=C/c3ccc(O)cc3)c(Br)c2)cc1 [K114]
EC50 RSV A2-L19FD489E-fireSMASh [3]: inactive^e | CC50 [2]: > 10 µM | EC50 IAV WSN-nanoLuc [5]: inactive^e

O=C1C(=Cc2ccccc2)C[C@@]2(O)[C@H]3Cc4ccc(O)c5c4[C@@]2(CCN3CC2CC2)[C@H]1O5 [BNTX-7]
SI RSV [CC50/EC50] [3]: SIRSV >4 | EC50 [3]: 2.5 µM | CC50 [2]: > 10 µM | EC50 IAV WSN-nanoLuc [5]: inactive^e | effect on IAV reporter strain [5]: unaffected

COC(=O)C[C@](O)(CCCC(C)(C)O)C(=O)O[C@@H]1C(OC)=C[C@]23CCCN2CCc2cc4c(cc2[C@H]13)OCO4 [Homoharringtonine]
inhibition at 5 µM [1]: 90 ± 2.6%

CC(=O)N[C@H]1[C@H]([C@H](O)[C@H](O)CO)OC(C(=O)O)=C[C@@H]1N=C(N)N [Zanamivir]
EC50 RSV A2-L19FD489E-fireSMASh [3]: Inactive | EC50 [4]: 0.02 µM | SI IAV [CC50/EC50] [5]: SIIAV >500 IAV inhibitor [83] | CC50 [6]: > 10 µM

NC(=O)c1ncn([C@@H]2O[C@H](CO)[C@@H](O)[C@H]2O)n1 [Ribavirin]
SI RSV [CC50/EC50] [3]: SIIAV >2.2 SIRSV >3.9 broad spectrum [84] | EC50 [4]: 4.5 µM | SI IAV [CC50/EC50] [5]: SIIAV >2.2 SIRSV >3.9 broad spectrum [84] | CC50 [6]: > 10 µM | EC50 [7]: 2.9 µM

COc1cccc2c1C(=O)c1c(O)c3c(c(O)c1C2=O)C[C@@](O)(C(=O)CO)C[C@@H]3O[C@H]1C[C@H](N)[C@@H](O)[C@H](C)O1 [Epirubicin]
inhibition at 5 µM [1]: 75 ± 3.1%

CN(CCOc1ccc(CC2SC(=O)NC2=O)cc1)c1ccccn1 (centres unmarked) [Rosiglitazone]
inhibition at 5 µM [1]: 35 ± 5%

CC(=O)[C@]1(O)Cc2c(O)c3c(c(O)c2[C@@H](O[C@H]2C[C@H](N)[C@H](O)[C@H](C)O2)C1)C(=O)c1ccccc1C3=O [Idarubicin]
inhibition at 5 µM [1]: 97 ± 1% | CC50 (PrestoBlue cell viability) [2]: tox^d

O=[N+]([O-])c1ccc2c(c1)S(=O)(=O)C=C2 [Stattic]
EC50 [3]: 5.9 µM | CC50 [2]: 10 µM | SI IAV [CC50/EC50] [5]: SIIAV 3 | EC50 [5]: 3.3 µM

CC1=C(/C=C/C(C)=C/C=C/C(C)=C/C(=O)Nc2ccc(O)cc2)C(C)(C)CCC1 [Fenretinide]
SI RSV [CC50/EC50] [3]: SIRSV >2.8 Dengue [62], HIV [61] | EC50 IAV WSN-nanoLuc [5]: inactive^e | effect on IAV reporter strain [5]: unaffected | CC50 [6]: > 10 µM | EC50 [7]: 4.8 µM

Nc1nc(N)c2nc(-c3ccccc3)c(N)nc2n1 [Triamterene]
EC50 RSV A2-L19FD489E-fireSMASh [3]: inactive^e | EC50 IAV WSN-nanoLuc [5]: inactive^e | CC50 [6]: > 10 µM

Cc1nc2ccc(CN(C)c3ccc(C(=O)N[C@@H](CCC(=O)O)C(=O)O)s3)cc2c(=O)[nH]1 [Raltitrexed]
inhibition at 5 µM [1]: 60 ± 6.5%

CC[C@]1(O)C[C@H]2CN(CCc3c([nH]c4ccccc34)[C@@](C(=O)OC)(c3cc4c(cc3OC)N(C=O)[C@H]3[C@@](O)(C(=O)OC)[C@H](OC(C)=O)[C@]5(CC)C=CCN6CC[C@]43[C@@H]65)C2)C1 [Vincristine]
inhibition at 5 µM [1]: 50 ± 2.9%

COc1cc2nc(N3CCCN(C)CC3)nc(NC3CCN(Cc4ccccc4)CC3)c2cc1OC [BIX 01294]
EC50 RSV A2-L19FD489E-fireSMASh [3]: inactive^e | EC50 IAV WSN-nanoLuc [5]: inactive^e | CC50 [6]: > 10 µM

c1cnc2c(c1)ccc1cccnc12 [Phenanthroline]
CC50 [6]: 2.4 µM

CC(=O)OC[C@H]1O[C@@H]([S-])[C@H](OC(C)=O)[C@@H](OC(C)=O)[C@@H]1OC(C)=O.CCP(CC)CC.[Au+] [Auranofin]
CC50 (PrestoBlue cell viability) [2]: tox^d

Cc1c2oc3c(C)ccc(C(=O)N[C@@H]4C(=O)N[C@H](C(C)C)C(=O)N5CCC[C@H]5C(=O)N(C)CC(=O)N(C)[C@@H](C(C)C)C(=O)O[C@@H]4C)c3nc-2c(C(=O)N[C@@H]2C(=O)N[C@H](C(C)C)C(=O)N3CCC[C@H]3C(=O)N(C)CC(=O)N(C)[C@@H](C(C)C)C(=O)O[C@@H]2C)c(N)c1=O [Actinomycin D] (I: T[dV]P[Sar][NMeV] / II: T[dV]P[Sar][NMeV]; ester I:1-I:C, II:1-II:C; linker I:N-II:N via Actinocin(9to1))
inhibition at 5 µM [1]: 104 ± 1.5%

Nc1nc2c(ncn2CCOCP(=O)(O)O)c(=O)[nH]1 [PMEG]
SI RSV [CC50/EC50] [3]: SIIAV 50 SIRSV 100 HPV [67] | potency against RSV relative to IAV [3]: approximately 2 fold | EC50 [3]: 0.1 µM | CC50 [2]: 10 µM | SI IAV [CC50/EC50] [5]: SIIAV 50 SIRSV 100 HPV [67] | EC50 [5]: 0.2 µM

CCN(CC)CCNC(=O)c1c(C)[nH]c(/C=C2\C(=O)Nc3ccc(F)cc32)c1C [Sunitinib]
CC50 (PrestoBlue cell viability) [2]: tox^d

COc1cc([C@@H]2c3cc4c(cc3[C@@H](O[C@@H]3O[C@@H]5CO[C@@H](C)O[C@H]5[C@H](O)[C@H]3O)[C@H]3COC(=O)[C@H]23)OCO4)cc(OC)c1O [Etoposide]
inhibition at 5 µM [1]: 56 ± 5.6%

CCOC(=O)C1=C(C)NC(C)=C(C(=O)OC)C1c1cccc([N+](=O)[O-])c1 (centres unmarked) [Nitrendipine]
EC50 RSV A2-L19FD489E-fireSMASh [3]: inactive^e | EC50 IAV WSN-nanoLuc [5]: inactive^e | CC50 [6]: > 10 µM

C[n+]1cc2c3c(ccc2c2ccc4cc5c(cc4c21)OCO5)OCO3 [Sanguinarine]
CC50 (PrestoBlue cell viability) [2]: tox^d

C=C[C@@H]1C[C@]1(NC(=O)[C@@H]1C[C@@H](Oc2ncc(OC)c3ccc(Cl)cc23)CN1C(=O)[C@@H](NC(=O)OC(C)(C)C)C(C)(C)C)C(=O)NS(=O)(=O)C1CC1 [ASV, Asunaprevir]
effect on progeny virus titers [8]: no effect | reduction of firefly luciferase activity [9]: approximately 90%

CC(C)[C@]12O[C@H]1[C@@H]1O[C@]13[C@]1(O[C@H]1C[C@H]1C4=C(CC[C@@]13C)C(=O)OC4)[C@@H]2O [Triptolide]
inhibition at 5 µM [1]: 103 ± 1.2% | EC50 [4]: 0.15 µM | SI (CC50/EC50) value at dose-response testing [5]: below two | CC50 [6]: 0.3 µM | EC50 [7]: 0.6 µM

CCCCCCCCCCCCCCCCCCOCC(COP(=O)([O-])OCC[N+](C)(C)C)OC (centres unmarked) [ET-18-OCH3]
EC50 RSV A2-L19FD489E-fireSMASh [3]: inactive^e | CC50 [2]: > 10 µM | EC50 IAV WSN-nanoLuc [5]: inactive^e
